Source: US20020110590A1, “Pharmaceutical formulation containing DEMO for the treatment of cancer” (Ilex Oncology, Inc., priority 1996, published 2002)

Experiments:
polyamine pools = conditions: cited from earlier work
[1] = healthy men; cited from earlier work
Solubility of DFMO = assay type: physicochemical
[2] = tested on: advanced solid tumors or lymphomas; conditions: patients with advanced solid tumors or lymphomas; cited from earlier work
[3] = oral administration; cited from earlier work
[4] = any route of drug administration; cited from earlier work
[5] = target: T1, ornithine decarboxylase (ODC) (Homo sapiens, UniProt P11926); conditions: reported by some (Danzin, 1987); cited from earlier work
T1 sequence (P11926 1-461): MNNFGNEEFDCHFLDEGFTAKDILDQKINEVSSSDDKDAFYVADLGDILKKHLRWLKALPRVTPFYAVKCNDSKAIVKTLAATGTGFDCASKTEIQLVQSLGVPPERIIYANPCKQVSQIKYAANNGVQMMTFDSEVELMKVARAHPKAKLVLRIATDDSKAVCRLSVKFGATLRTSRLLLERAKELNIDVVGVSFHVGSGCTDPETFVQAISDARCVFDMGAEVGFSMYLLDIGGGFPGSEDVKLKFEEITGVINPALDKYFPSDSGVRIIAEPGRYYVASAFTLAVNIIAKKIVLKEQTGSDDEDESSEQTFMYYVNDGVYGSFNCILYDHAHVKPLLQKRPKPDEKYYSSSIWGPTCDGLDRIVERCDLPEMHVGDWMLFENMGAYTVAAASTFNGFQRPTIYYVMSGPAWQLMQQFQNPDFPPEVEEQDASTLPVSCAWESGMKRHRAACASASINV

Row | SMILES | minimum effective dose (MED) in significantly reducing polyamine pools in vivo (polyamine pools) | elimination half-life t½ [1] | share of drug elimination accounted for by renal clearance [1] | water solubility (Solubility of DFMO) | solubility of DFMO at a neutral pH (Solubility of DFMO; neutral pH versus acid) | therapeutic responses [2] | maximum tolerated dose [3] | therapeutic responses [4] | enantiomer responsible for ODC inhibition [5]
1 | NCCC[C@](N)(C(=O)O)C(F)F (racemic) [DFMO, alpha-difluoromethylornithine] | about 0.43 g/day | about 3.5 hours | 83% | very water-soluble | relatively lower solubility | No therapeutic responses | about 12 g/m^2/day | No therapeutic responses | –
2 | NCCC[C@](N)(C(=O)O)C(F)F [(−)-DFMO, alpha-difluoromethylornithine] | – | – | – | – | – | – | – | – | enantiomer primarily responsible for ODC inhibition
